# Results reported in patent US20020102678A1, “Staphylococcal gene, vgaC, conferring resistance to streptogramin A and related compounds” (priority 2000, published 2002).
# Experiments:
# [1] = system: BM3249, S. aureus clinical isolate; assay: MIC by serial twofold dilutions in MHA, strain BM3249; type: cell-based
# Description: (§1) Staphylococci were grown in Brain Heart Infusion (Difco Laboratories, Detroit, Mich.), and E. coli cells were grown in Luria broth (10 g.1^−1 of tryptone, 5 g.^−1 of yeast extract, and 10 g.1^−1 of NaCl) Solid media contained 15 g.1^−1 of agar. Bacteria were incubated at 37° C. and for liquid cultures with agitation. Susceptibility to antibiotics was tested on Mueller-Hinton agar (MHA) (Diagnostics Pasteur, Marne-la-Coquette, France).
# (§2) Susceptibility to antibiotics was determined by a disk diffusion assay (12) with commercially available antibiotic disks (Diagnostics Pasteur) and disks prepared in our laboratory as described previously (18). MICs of pristinamycin IIA and pristinamycin (Rhône-Poulenc Rorer) were determined with serial twofold dilutions of antibiotics in MHA, as described previously (2, 17).
# [2] = system: BM3250, S. aureus clinical isolate; assay: MIC by serial twofold dilutions in MHA, strain BM3250; type: cell-based
# Description: as §1, §2
# [3] = system: BM3252, S. aureus clinical isolate; assay: MIC by serial twofold dilutions in MHA, strain BM3252; type: cell-based
# Description: as §1, §2
# [4] = system: BM3318, S. aureus clinical isolate; assay: MIC by serial twofold dilutions in MHA, strain BM3318; type: cell-based
# Description: as §1, §2
# [5] = system: BM3327, S. aureus clinical isolate; assay: MIC by serial twofold dilutions in MHA, strain BM3327; type: cell-based
# Description: as §1, §2
# [6] = system: BM21926, S. aureus transformant: RN4220 (pIP 1810); assay: MIC by serial twofold dilutions in MHA, transformant carrying vgaC; type: cell-based; settings: S. aureus RN4220 (pIP1810, carries vgaC) = BM21926
# Description: as §1, §2
# (§3) A DNA fragment of 1827-bp including vgaC was amplified with primers C and D (FIG. 1) from the cellular DNA of BM3327. This amplicon was cleaved with BamHl and KpnI and inserted between the BamHl and KpnI sites of the shuttle vector, pRB374 (11), downstream from the vegII promoter carried by this vector. The resulting plasmid, pIP1810, was introduced by electroporation into the S. aureus recipient RN4220. It conferred resistance to pristinamycin IIA (MICs: 32 mg.1^−1 for RN4220 [pIP18101, and 2 mg.1^−1 for RN4220 [pRB374]).
# RN4220 [pRB374] = assay: MIC by serial twofold dilutions in MHA, transformant with the empty vector; type: cell-based; settings: S. aureus RN4220 [pRB374], vector without vgaC
# Description: as §1, §2, §3
# [7] = system: four S. aureus isolates (BM3249, BM3250, BM3252 and BM3327); assay: MICs of the four isolates used in filter mating; type: cell-based; settings: range over BM3249, BM3250, BM3252 and BM3327
# Description: as §1, §2
# Each of the four S. aureus isolates (BM3249, BM3250, BM3252 and BM3327: Table 1) resistant to PIIA (MICs : 64-128 mg. 1^−1) and related antibiotics was crossed on a membrane filter with the S. aureus recipient strain, ISP1127 (26). No transcipients were obtained by selection on pristinamycin IIA (frequency<10^−10 transcipients/donor).
# resistant staphylococci = settings: staphylococci resistant to A compounds; cited from earlier work
smiles,measurement,setting,value
CC1=C\[C@@H](O)CC(=O)Cc2nc(co2)C(=O)N2CCC=C2C(=O)O[C@H](C(C)C)[C@H](C)/C=C/C(=O)NC\C=C\1 [pristinamycin IIA],MIC,[1],64 mg.1^−1
same,MIC,[2],64 mg.1^−1
same,MIC,[3],64 mg.1^−1
same,MIC,[4],128 mg.1^−1
same,MIC,[5],128 mg.1^−1
same,MIC,[6],32 mg.1^−1
same,MIC,[6]; listed as SgA,SgA (32 mg.1^−1) Km Nm Tm
same,MIC,RN4220 [pRB374],2 mg.1^−1
same,MICs,[7],64-128 mg. 1^−1
same,MICs,resistant staphylococci,8 mg.1^1
